We go through ten compounds from publication PMC11674305, “Inhibition of Neural Crest Cell Migration by Strobilurin Fungicides and Other Mitochondrial Toxicants” (Cells, 2024).

Values joined by “and” are separate entries in the source; they are usually repeats but may differ in a detail not shown here. Equal entries are not always repeated. Where two headings read alike, the source gives them in different places.

Common to all, as to type: cell-based, human
In series [1] the test system is neural crest cells (NCC). As to the kind of experiment: cMINC (UKN2) assay: circular migration of neural crest cells, with viability. The following applies: for Migration / Viability: Pre-Screen 1, single concentration 1:1000 of stock, in most cases 100 μM; for BMC25 (M): migration; for Ratio: migration/cytotoxicity ratio, hit requires ≥ 1.3, HTC used where no viability effect. As to the method:
The research group initially developed the first version of the test in 2012 [40]. The test has been further improved and characterized. To perform the cMINC assay, NCCs were thawed in N2-S Medium and seeded on the day of migration-1 (DoM-1) on a 96-well polystyrene plate (Corning, Glendale, AZ, USA) around stoppers, to create a cell-free area of 2 mm diameter (Platypus Technologies, Madison, WI, USA). The cells were resuspended in N2-S Medium supplemented with […] of the cytokines EGF and FGF, and then counted and seeded around the stoppers at a density of 95,000 cells/cm^2. After 24 h, the stoppers were removed, and the medium was exchanged. The removal of the stoppers initiates migration of the NCCs into the cell-free area. For the treatment, the 5x-concentrated toxicant solution was added to the medium 24 h after stopper removal.
On day 2, cells were stained with 533 nM calcein-AM and 1 μg/mL H-33342 (both from Sigma, Steinheim, Germany) and observed using two different channels on the Cellomics ArrayScan VTI imaging microscope (Thermo Fisher, Pittsburgh, PA, USA) to assess viability and migration. For the migration, four pictures were taken in the region of interest (ROI) (5× magnification objective). Migration data were obtained using the software “Ringassay” (http://invitrotox.uni-konstanz.de/ (accessed on 3 November 2024)), which can estimate the previously cell-free area and count the number of H-33342 and calcein-AM double-positive cells. Cell viability was assessed by taking four pictures outside of the ROI with 10× magnification objective. Viable cells were defined as H-33342 and calcein-AM double-positive cells and calculated by an automatic algorithm of the ArrayScan VTI 700 Series software as described earlier. […] Each plate included wells for testing of negative (0.1% DMSO solvent) and positive controls (200 nM cytochalasin D) in addition to the wells for blinded samples. The data from control wells were used as acceptance criteria of the assay. […] Renormalization of the concentration–response curves was performed after a visual inspection that the two lowest test-concentration data points are in the no-effect range. The average response (relative to solvent control) of the lowest two test concentrations was calculated, and all other data points of the same curve were divided by this average value. The calculations of the benchmark concentrations 10 for viability (BMC10 (V)) and 25 for migration (BMC25 (M)) were performed with the online available BMC software (http://invitrotox.uni-konstanz.de/ (accessed on 4 November 2024)).

Series [2] relates to neural crest cells (NCC). As to the kind of experiment: Intracellular ATP measurement (CellTiterGlo). Particulars: at BMC10 (V) of cMINC; for ATP levels: after 60 min. On the procedure: Cells were seeded at a density of 20,000 cells/well. The NCCs were treated with the BMC10 (V) of the cMINC screen for one hour, six hours or 24 h. Then, a CellTiterGlo-Triton mix was prepared. Therefore, a 0.5% Triton solution in PBS was prepared, and the commercial reagent mix CellTiterGlo 2.0 (Promgea, Madison, WI, USA) was added in a 1:1 ratio. An amount of 50 µL/well of the mix was added to 100 µL of medium. The plate was shaken for two minutes, and 100 µL of the cell mixture was transferred to a white measurement plate. For the blank value, only medium with the mix was measured. Luminescence data of samples were normalized to DMSO solvent controls, and the ATP data are given in % relative to “untreated cells”.

Series [3] concerns neural crest cells (NCC). In words: Seahorse oxygen consumption rate (mitochondrial stress test). Particulars: at BMC10 (V) of cMINC, after basal respiration recording. As to the method:
The Seahorse bioanalyzer simultaneously measures cellular oxygen consumption rates (OCR) and extracellular acidification rates (ECAR). Therefore, NCCs were seeded at least two days prior to the assays at a density of 80,000 cells/well on Seahorse XF96 V3 PS Cell Culture Microplates (Agilent, Santa Clara, CA, USA) in either glucose medium or galactose medium. After 24 h, the medium was exchanged. For the real-time ATP production rate and mitochondrial stress assay, the cartridge was hydrated at 0% CO2 and 37 °C, and the seahorse was turned on to stabilize the temperature one day prior. The medium was changed to Seahorse XF DMEM Medium (Agilent, Santa Clara, CA, USA) supplemented with 2 mM L-glutamine, 1 mM pyruvate and 18 mM glucose or galactose 1 h before the start of the assays. Directly before the start of the assay, the medium was exchanged again. The sensor cartridge was loaded with the test compounds anchored to the BMC10 (V) of the cMINC screen and the recommended concentrations of calibration compounds for a mitochondrial stress test. These were 5 μM oligomycin, 15 μM carbonyl cyanide p-trifluoro methoxyphenylhydrazone (FCCP) and 5 μM rotenone plus 5 μM antimycin A. Additionally, 1 μg/mL H-33342 was added to the rotenone and antimycin A injection to perform afterwards a cell count (Cellomics, Waltham, MA, USA), to which the data were normalized. Six technical replicates were used for control conditions, and three technical replicates were used for other samples. The software Seahorse Analytics (Agilent, Santa Clara, CA, USA) was used for the evaluation (https://seahorseanalytics.agilent.com (accessed on 30 October 2024)).

Where [4] appears, read: viability, primary screen, 24 h exposure, * = no effect up to highest tested concentration.
Where [5] appears, read: Homo sapiens, 24 h, primary screen, 24 h exposure, read-out: BMC25.

`CO/C=C(/C(=O)OC)c1ccccc1Oc1cc(Oc2ccccc2C#N)ncn1` [Azoxystrobin, azoxystrobin]: in the series with neural crest cells (NCC) [1], the Migration was 59 % of control, the Viability is given as 95 % of control and the Ratio was found to be 3.5. The “BMC25 (M)” value with neural crest cells (NCC) [1] (primary screen, 24 h exposure) was 2.9e-05 M and 3e-05 M. Moreover, the “effect on viability in the tested concentration range” value with neural crest cells (NCC) [1] (primary screen) is “did not reduce viability at all”. For the same compound, the “BMC10 (V)” value in the series with neural crest cells (NCC) [1] (setting [4]) is over 100 µM. In the series on neural crest cells (NCC) [2], the ATP levels result was “did not decrease”.
On to `CCOCn1c(-c2ccc(Cl)cc2)c(C#N)c(Br)c1C(F)(F)F` [Chlorfenapyr, chlorfenapyr], for which the BMC25 (M) in the series on neural crest cells (NCC) [1] (setting [5]) came out at 5.1e-06 M. The Migration in the series on neural crest cells (NCC) [1] is 0 % of control. Also, the “BMC10 (V)” value with neural crest cells (NCC) [1] (human, 24 h) came to 6.8 µM. Also, in the series on neural crest cells (NCC) [1], the Ratio is on record as 1.3. For the same compound, the “effect on oxygen consumption rate (OCR) after injection” value (“effect on oxygen consumption rate” for short) in the series on neural crest cells (NCC) [3] was “no decrease in OCR”. Further, the “decline of ATP” value in the series on neural crest cells (NCC) [2] (after 1 h) is given as over 25%; in the series on neural crest cells (NCC) [2] (after 24 h), over 90%.
For `Cc1ccc(-c2c(Cl)nc(C#N)n2S(=O)(=O)N(C)C)cc1` [Cyazofamid, cyazofamid], the BMC25 (M) with neural crest cells (NCC) [1] (setting [5]) was 7.8e-06 M. In the series on neural crest cells (NCC) [1], the Migration is on record as 29 % of control and the Ratio is on record as 2.6. Moreover, the “BMC10 (V)” value with neural crest cells (NCC) [1] (human, 24 h) came out at 20 µM. The “effect on oxygen consumption rate” value in the series on neural crest cells (NCC) [3] is “the OCR increased continuously”.
As for `Cc1nn(C)c(Oc2ccccc2)c1C=NOCc1ccc(C(=O)OC(C)(C)C)cc1` [Fenpyroximate, fenpyroximate], the BMC25 (M) in the series with neural crest cells (NCC) [1] (setting [5]) came to 3e-06 M. In the series on neural crest cells (NCC) [1], the Migration is listed as 38 % of control, the Viability is recorded as 95 % of control and the Ratio worked out at 1.9. Moreover, the “BMC10 (V)” value with neural crest cells (NCC) [1] (setting [4]) was 7 µM and 6.6 µM. For the same compound, the “effect on oxygen consumption rate” value in the series on neural crest cells (NCC) [3] was “completely shut down the mitochondrial respiration”. Further, in the series on neural crest cells (NCC) [2], the ATP levels entry is given as “did not decrease”. Further, in the series on neural crest cells (NCC) [2] (after 6 h), the “decrease in ATP levels” value was over 25%.
For `CO/N=C(/C1=NOCCO1)c1ccccc1Oc1ncnc(Oc2ccccc2Cl)c1F` [Fluoxastrobin, fluoxastrobin], in the series with neural crest cells (NCC) [1] (setting [5]), the BMC25 (M) was determined as 2e-05 M. For the same compound, in the series on neural crest cells (NCC) [1], the Migration is 60 % of control, the Viability was 95 % of control and the Ratio is 4.6. Besides, the “effect on viability in the tested concentration range” value in the series on neural crest cells (NCC) [1] (primary screen) is given as “did not reduce viability at all”. The “BMC10 (V)” value with neural crest cells (NCC) [1] (setting [4]) was over 100 µM.
As for `CO/N=C(/C(=O)OC)c1ccccc1COc1ccccc1C` [Kresoxim-methyl, kresoxim-methyl], the BMC25 (M) in the series with neural crest cells (NCC) [1] (setting [5]) is 2.7e-05 M. Moreover, in the series on neural crest cells (NCC) [1], the Migration is given as 72 % of control, the Viability is given as 33 % of control and the Ratio was 1.6. Besides, the “BMC10 (V)” value in the series with neural crest cells (NCC) [1] (setting [4]) turned out to be 43 µM.
Regarding `COC(=O)N(OC)c1ccccc1COc1ccn(-c2ccc(Cl)cc2)n1` [Pyraclostrobin, pyraclostrobin], the BMC25 (M) in the series on neural crest cells (NCC) [1] (setting [5]) amounted to 1.7e-05 M. In the series on neural crest cells (NCC) [1], the Migration is reported as 72 % of control, the Viability is on record as 97 % of control and the Ratio came out at 2.6. Besides, the “BMC10 (V)” value in the series on neural crest cells (NCC) [1] (setting [4]) came out at 44 µM. Also, the ATP levels result with neural crest cells (NCC) [2] is recorded as “did not decrease”.
As to `CC(C)(C)c1ccc(CSc2cnn(C(C)(C)C)c(=O)c2Cl)cc1` [Pyridaben, pyridaben], in the series with neural crest cells (NCC) [1] (setting [5]), the BMC25 (M) was 4.7e-05 M. Further, in the series with neural crest cells (NCC) [1], the Migration is 58 % of control and the Ratio was 1.8. Also, in the series on neural crest cells (NCC) [1] (human, 24 h), the “BMC10 (V)” value was 83 µM. Also, the “effect on oxygen consumption rate” value with neural crest cells (NCC) [3] is listed as “completely shut down the mitochondrial respiration”.
Regarding `C=C(C)[C@H]1Cc2c(ccc3c2O[C@@H]2COc4cc(OC)c(OC)cc4[C@@H]2C3=O)O1` [Rotenone, rotenone], the IC25 in the series with neural crest cells (NCC) [1] (Homo sapiens, 24 h, read-out: BMC25 (M)) was determined as 6e-08 M. In the series with neural crest cells (NCC) [1], the Migration was 0 % of control, the Viability is recorded as 0 % of control and the Ratio was 1.9. Moreover, the “BMC10 (V)” value with neural crest cells (NCC) [1] (setting [4]) worked out at 0.1 µM.
`CON=C(C(=O)OC)c1ccccc1CON=C(C)c1cccc(C(F)(F)F)c1` [Trifloxystrobin, trifloxystrobin]: the BMC25 (M) in the series on neural crest cells (NCC) [1] (setting [5]) turned out to be 1.3e-05 M. For the same compound, in the series with neural crest cells (NCC) [1], the Migration is recorded as 85 % of control and the Ratio was 1.4. Besides, the “BMC10 (V)” value in the series on neural crest cells (NCC) [1] (human, 24 h) was found to be 18 µM.
